Data on 10 compounds can be found in patent US20250144067A1, “PERSONALIZED STARVATION THERAPY FOR CANCER” (Faeth Therapeutics, Inc., priority 2021, published 2025).

Experiment [1] relates to NCI-H292 lung cancer cells. Briefly: FDA drug screening, complete media vs cholesterol-free media without statin (TABLE 1). The class given is cell-based, human.
For experiment [2], the system named is NCI-H292 lung cancer cells. Description: FDA drug screening, complete media vs cholesterol-free media with simvastatin (TABLE 2). Type of experiment: cell-based, human.
The mark [3] stands for this setting: Complete minus Cholesterol-free, […].
The mark [4] stands for this setting: NCI-H292 cells, FDA drug library screen, cholesterol-free media without statin.
Where [5] appears, read: NCI-H292 cells, FDA drug library screen, complete media.
Setting [6] is: NCI-H292 cells, drug in cholesterol-free media with simvastatin 0.04 μM.
Where [7] appears, read: NCI-H292 cells, drug in complete media.
Setting [8] is: Complete minus Cholesterol-free, >0 enhanced anti-cancer activity, about 0 neutral, <0 antagonist.
Setting [9] is: NCI-H292 cells, cholesterol-free media without statin.
[10] abbreviates: NCI-H292 cells, FDA drug library screen, cholesterol-free media with simvastatin 0.04 μM.
Setting [11] is: complete media vs cholesterol-free media + simvastatin (0.04 μM), >0 enhanced anti-cancer activity, about 0 neutral, <0 antagonist.
Where [12] appears, read: NCI-H292 cells, cholesterol-free media without statin, FDA drug library screen.
Setting [13] is: NCI-H292 cells, complete media, FDA drug library screen.
[14] abbreviates: complete vs cholesterol-free media, >0 enhanced anti-cancer activity, about 0 neutral, <0 antagonist.
[15] abbreviates: complete media minus cholesterol-free media + simvastatin, >0 enhanced anti-cancer activity, about 0 neutral, <0 antagonist.

Read-outs that look alike come from different tables or passages of the source.

With `C=C[C@@H]1C[C@]1(NC(=O)[C@@H]1C[C@@H]2CN1C(=O)[C@H](C(C)(C)C)NC(=O)O[C@@H]1C[C@H]1CCCCCc1nc3ccc(OC)cc3nc1O2)C(=O)NS(=O)(=O)C1CC1.O` [Grazoprevir], the Difference in experiment [1] (setting [3]) is reported as −0.09; in experiment [2] (complete media minus cholesterol-free media + simvastatin, […]) it was 0.02. Moreover, the Cholesterol-free in experiment [1] (setting [4]) is reported as 1.057. Besides, the Complete in experiment [1] (setting [5]) is 0.9626. Also, the “Cholesterol-free media + simvastatin (0.04 μM)” value in experiment [2] (NCI-H292 cells, cholesterol-free media with simvastatin 0.04 μM, […]) is 0.9215. Also, the “Complete Media” value in experiment [2] (NCI-H292 cells, complete media, […]) amounted to 0.9383.

Turning to Oxolamine (citrate), in experiment [1], the Cholesterol-free is 1.162, the Complete turned out to be 0.9128 and the Difference is −0.25. In experiment [2], the “Cholesterol-free media + simvastatin (0.04 μM)” value was found to be 0.8466, the “Complete Media” value is 1.01 and the Difference was found to be 0.16.

On to `CC(C)C(Br)C(=O)NC(N)=O` (stereo not drawn) [Bromisoval], for which the Difference in experiment [1] (setting [3]) is recorded as −0.47; in experiment [2] (complete media vs cholesterol-free media + simvastatin (0.04 μM), […]) it was −0.16. In addition, the Cholesterol-free in experiment [1] (NCI-H292 cells in cholesterol-free media without statin) is given as 1.334. The same compound displayed a Complete in experiment [1] (NCI-H292 cells in complete media) of 0.8605. In experiment [2] (setting [6]), the “Cholesterol-free media + simvastatin (0.04 μM)” value was found to be 1.086. The “Complete Media” value in experiment [2] (setting [7]) was 0.9233.

Turning to `CC(C)(C)N.CCC[C@H](N[C@@H](C)C(=O)N1[C@H](C(=O)O)C[C@@H]2CCCC[C@@H]21)C(=O)OCC` [Perindopril (erbumine)], the Difference was −0.25 in experiment [1] (setting [8]) and −0.13 in experiment [2] (setting [11]). The compound further had a Cholesterol-free in experiment [1] (setting [9]) of 1.151. Further, the Complete in experiment [1] (NCI-H292 cells, complete media) amounted to 0.8989. Further, the “Cholesterol-free media + simvastatin (0.04 μM)” value in experiment [2] (setting [10]) stood at 0.9237. For the same compound, the “Complete Media” value in experiment [2] (setting [5]) came to 0.7917.

For `OC[C@@H](O)[C@@H](O)[C@H](O)[C@H](O)CO` [D-Mannitol], the Cholesterol-free in experiment [1] (setting [12]) turned out to be 0.8621. This compound displayed a Complete in experiment [1] (setting [13]) of 1.662. Further, the values for the Difference in experiment [1] (setting [14]) and in experiment [2] (setting [15]) were 0.80 and 0.71, respectively. Also, in experiment [2] (setting [10]), the “Cholesterol-free media + simvastatin (0.04 μM)” value was 1.033. In addition, the “Complete Media” value in experiment [2] (setting [5]) is listed as 1.748.

`O=C(NCc1c(F)cc(F)cc1F)c1cn2c(c(O)c1=O)C(=O)N1[C@H]3CC[C@H](C3)O[C@@H]1C2` [Bictegravir] displayed a Cholesterol-free in experiment [1] (setting [9]) of 1.057. Moreover, the Complete in experiment [1] (NCI-H292 cells, complete media) is 0.7123. Besides, the Difference is −0.34 in experiment [1] (complete vs cholesterol-free media, greater than 0 enhanced anti-cancer activity, about 0 neutral, below 0 antagonists) and −0.20 in experiment [2] (setting [11]). Besides, the “Cholesterol-free media + simvastatin (0.04 μM)” value in experiment [2] (setting [6]) was 1.109. The “Complete Media” value in experiment [2] (setting [7]) was 0.9083.

With `Cc1cc(C2CCCCC2)n(O)c(=O)c1` [Ciclopirox], the Difference in experiment [1] (Complete minus Cholesterol-free, greater than 0 enhanced anti-cancer activity, about 0 neutral, below 0 antagonist) is reported as −0.10; in experiment [2] (setting [15]), 0.46. Further, the Cholesterol-free in experiment [1] (setting [4]) came out at 0.2725. The Complete in experiment [1] (setting [5]) is listed as 0.1741. In addition, the “Cholesterol-free media + simvastatin (0.04 μM)” value in experiment [2] (setting [10]) is reported as 0.2219. In addition, in experiment [2] (setting [5]), the “Complete Media” value was determined as 0.6804.

Take `CCCCC/C=C\C/C=C\CCCCCCCC(=O)O` [Linoleic acid]: the Cholesterol-free in experiment [1] (setting [12]) is recorded as 1.134. For the same compound, the Complete in experiment [1] (setting [13]) is on record as 1.557. Besides, the Difference came out at 0.42 in experiment [1] (setting [14]) and 0.45 in experiment [2] (setting [15]). Further, in experiment [2] (setting [10]), the “Cholesterol-free media + simvastatin (0.04 μM)” value was found to be 1.399. Moreover, the “Complete Media” value in experiment [2] (setting [5]) is given as 1.847.

On to `CO/N=C(\C(=O)N[C@@H]1C(=O)N2C(C(=O)O)=C(CSc3nc(C)c(CC(=O)O)s3)CS[C@H]12)c1csc(N)n1` [Cefodizime], for which the Difference in experiment [1] (setting [8]) is listed as −0.06; in experiment [2] (setting [11]), −0.17. The compound further returned a Cholesterol-free in experiment [1] (setting [12]) of 0.9888. The compound further registered a Complete in experiment [1] (setting [13]) of 0.9297. In addition, the “Cholesterol-free media + simvastatin (0.04 μM)” value in experiment [2] (setting [6]) is reported as 1.707. In experiment [2] (setting [7]), the “Complete Media” value was found to be 1.539.

In experiment [1] (setting [12]), `COc1cc(N2CCC(N3CCN(C)CC3)CC2)ccc1Nc1ncc(Cl)c(Nc2ccccc2P(C)(C)=O)n1` [Brigatinib] showed a Cholesterol-free of 0.5531. In experiment [1] (setting [13]), the Complete was 0.9482. Moreover, the Difference is recorded as 0.40 in experiment [1] (setting [14]) and −0.21 in experiment [2] (setting [11]). In addition, the “Cholesterol-free media + simvastatin (0.04 μM)” value in experiment [2] (setting [6]) amounted to 0.8361. Further, the “Complete Media” value in experiment [2] (setting [7]) turned out to be 0.6309.
